Assay results taken from the supplement of paper PMC10307832.

How the values were obtained:
Experiment in all cases: relative viability (nuclei count vs DMSO), 5 days (fraction); higher = more cells survive
AZ628 + Navitoclax = compound: CC1=C(C=C(C=C1)NC(=O)C2=CC(=CC=C2)C(C)(C)C#N)NC3=CC4=C(C=C3)N=CN(C4=O)C [AZ628] + CC1(C)CCC(c2ccc(Cl)cc2)=C(CN2CCN(c3ccc(C(=O)NS(=O)(=O)c4ccc(N[C@H](CCN5CCOCC5)CSc5ccccc5)c(S(=O)(=O)C(F)(F)F)c4)cc3)CC2)C1 [Navitoclax] (partner 0.5 µM)
In short: (§1)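 A single step with final 0.05% Triton X-100, 1% formaldehyde and 1 ug/ml Hoechst fixed the cells and stained nuclei 5 days after treatment. Lung cancer cell lines in 1536-well plates had been treated by pin tool the day after seeding with one drug alone or a fixed anchor-drug dose plus five library-drug doses (not always all listed) in √10 steps, and nuclei were counted on 4× images. Relative viability is the ratio of nuclei in treated wells to nuclei in vehicle wells, taken as the median of duplicate plates.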

AZ628 + Foretinib = compound: CC1=C(C=C(C=C1)NC(=O)C2=CC(=CC=C2)C(C)(C)C#N)NC3=CC4=C(C=C3)N=CN(C4=O)C [AZ628] + COc1cc2c(Oc3ccc(NC(=O)C4(C(=O)Nc5ccc(F)cc5)CC4)cc3F)ccnc2cc1OCCCN1CCOCC1 [Foretinib] (partner 0.25 µM)
In short: as §1

[1] = compound: C[As](C)SC[C@H](NC(=O)CC[C@H](N)C(=O)O)C(=O)NCC(=O)O [Darinaparsin] + CC(=O)Nc1cccc(-n2c(=O)n(C3CC3)c(=O)c3c(Nc4ccc(I)cc4F)n(C)c(=O)c(C)c32)c1 [Trametinib] (partner 0.02 µM)
In short: as §1

AZ628 + Alpelisib = compound: CC1=C(C=C(C=C1)NC(=O)C2=CC(=CC=C2)C(C)(C)C#N)NC3=CC4=C(C=C3)N=CN(C4=O)C [AZ628] + Cc1nc(NC(=O)N2CCC[C@H]2C(N)=O)sc1-c1ccnc(C(C)(C)C(F)(F)F)c1 [Alpelisib] (partner 2 µM)
In short: as §1

Cell Line	relative viability (AZ628 + Navitoclax; first compound 0.08 µM)	relative viability (AZ628 + Navitoclax; first compound 0.253 µM)	relative viability (AZ628 + Navitoclax; first compound 0.8 µM)	relative viability (AZ628 + Navitoclax; first compound 2.53 µM)	relative viability (AZ628 + Navitoclax; first compound 8 µM)	relative viability (AZ628 + Foretinib; first compound 0.08 µM)	relative viability (AZ628 + Foretinib; first compound 0.253 µM)	relative viability (AZ628 + Foretinib; first compound 0.8 µM)	relative viability (AZ628 + Foretinib; first compound 2.53 µM)	relative viability (AZ628 + Foretinib; first compound 8 µM)	relative viability ([1]; first compound 0.08 µM)	relative viability ([1]; first compound 0.8 µM)	relative viability ([1]; first compound 2.53 µM)	relative viability ([1]; first compound 8 µM)	relative viability (AZ628 + Alpelisib; first compound 0.08 µM)	relative viability (AZ628 + Alpelisib; first compound 0.253 µM)	relative viability (AZ628 + Alpelisib; first compound 0.8 µM)	relative viability (AZ628 + Alpelisib; first compound 2.53 µM)	relative viability (AZ628 + Alpelisib; first compound 8 µM)
NCI-H2085	1.19	1.12	1.08	1.04	0.861	0.994	1.17	1.07	1.09	0.676	0.469	0.477	0.586	0.618	1.06	0.965	1.03	0.856	0.714
NCI-H1395	1.2	1.08	1.1	1.05	1.22	0.996	0.967	0.974	1	0.939	1.24	0.954	0.957	0.94	1.19	1.2	1.03	0.991	0.915
NCI-H1666	0.865	0.771	0.728	0.772	0.513	0.894	0.769	0.749	0.756	0.893	1.03	0.845	0.858	0.912	0.79	0.765	0.522	0.534	0.425
NCI-H647	1.29	1.1	1.21	1.19	1.02	1.02	1.28	1.36	1.29	1.05	0.537	0.512	0.385	0.655	1.3	0.952	0.842	1.09	0.858
A-427	0.875	0.826	0.726	0.671	0.31	0.996	0.872	0.542	0.643	0.34	0.721	0.663	0.758	0.796	1.02	1.06	0.624	0.635	0.222
NCI-H1915	0.764	0.768	0.79	0.689	0.584	1.23	1.1	0.987	0.89	0.59	0.336	0.301	0.288	0.3	1.09	1.04	0.911	0.708	0.564
NCI-H1355	0.99	0.808	0.931	0.903	0.746	0.976	0.937	1.03	1.02	0.871	0.462	0.403	0.378	0.426	0.849	0.742	0.737	0.685	0.558
HCC-15	0.676	0.619	0.54	0.474	0.312	1.08	0.984	0.871	0.868	0.467	0.409	0.321	0.27	0.415	0.967	0.742	0.707	0.699	0.392
HCC-78	0.902	0.782	0.85	0.746	0.92	0.732	0.748	0.715	0.621	0.67	0.823	0.673	0.879	1.24	0.5	0.336	0.346	0.368	0.504
NCI-H23	0.878	0.868	0.61	0.783	0.559	0.989	0.967	0.768	0.773	0.588	0.402	0.339	0.43	0.409	0.745	0.622	0.305	0.501	0.377
NCI-H838	1.15	1.19	1.1	1.11	0.991	0.931	1	1.06	0.914	0.871	0.54	0.458	0.504	0.666	1.03	0.991	0.953	0.92	0.841
NCI-H1793	0.533	0.511	0.53	0.384	0.285	0.669	0.83	0.787	0.487	0.384	0.427	0.482		0.526	0.921	0.75	0.684	0.564	0.593
COR-L23	1.02	1.12	1.2	1.07	0.492	1.02	1	0.949	1.08	0.625	0.699	0.581	0.538	0.681	0.864	0.732	0.762	0.808	0.334
SW 1573	0.905	0.746	0.851	0.902	0.436	0.858	0.858	0.664	0.7	0.517	0.589	0.516	0.58	0.744	0.787	0.742	0.693	0.567	0.538
HARA	1.2	1.12	1.13	1.14	0.591	0.713	0.898	0.792	0.795	0.392	0.825		0.733	0.638	0.68	0.763	0.907	0.726	0.391
NCI-H1755	0.998	1	1.05	1.02	0.956	0.905	0.929	0.858	0.965	0.867	0.811	0.795	0.857	0.844	0.923	0.878	0.887	0.822	0.792
NCI-H460	1.2	1.18	1.09	1.09	0.561	0.978	0.996	0.974	1.02	0.54	0.312	0.329	0.12	0.166	0.459	0.335	0.325	0.271	0.13
